# Experimental data from patent US8501446B2 (Vertex Pharmaceuticals Incorporated, priority 2004, dated 2013).
# pKi: −log10 of the molar value.
# Experiments:
# Format in all cases: biochemical
# ROCK I (AA 6-553) = molecular target: T1, ROCK I (AA 6-553) (Homo sapiens, UniProt Q13464); assay: ROCK inhibition assay, standard coupled enzyme system ("Enzyme"); conditions: enzyme-linked assay
# T1 construct: ROCK I (AA 6-553)
# How it was run: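 ROCK I (AA 6-553) at 45 nM and 30 °C with 45 μM ATP and 200 μM peptide, in 100 mM HEPES pH 7.5, 10 mM MgCl2, 25 mM NaCl, 2 mM DTT, 1.5% DMSO. ADP output read by a PK/LDH coupled system: 2.5 mM PEP, 350 μM NADH, 30 μg/ml PK, 10 μg/ml LDH.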
# [1] = molecular target: T2, full length Aurora-A (AA 1-403) (Homo sapiens, UniProt O14965); assay: Aurora-A inhibition assay, standard coupled enzyme system; conditions: average Ki if more than one value determined
# T2 construct: full length Aurora-A (AA 1-403)
# T2 sequence (O14965 1-403): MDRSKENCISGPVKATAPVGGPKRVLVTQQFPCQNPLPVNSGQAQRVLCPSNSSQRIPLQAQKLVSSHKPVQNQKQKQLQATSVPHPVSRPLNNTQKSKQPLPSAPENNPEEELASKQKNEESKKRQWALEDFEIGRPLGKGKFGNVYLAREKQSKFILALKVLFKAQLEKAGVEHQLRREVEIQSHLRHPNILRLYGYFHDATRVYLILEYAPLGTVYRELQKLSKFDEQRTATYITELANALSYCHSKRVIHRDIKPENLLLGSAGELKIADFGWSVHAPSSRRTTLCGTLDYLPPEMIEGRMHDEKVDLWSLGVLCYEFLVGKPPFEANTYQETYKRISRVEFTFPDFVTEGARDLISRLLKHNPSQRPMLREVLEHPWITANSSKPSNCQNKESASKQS
# Aurora-C = molecular target: T3, Aurora-C (Homo sapiens, UniProt Q9UQB9); assay: Aurora-C inhibition assay, coupled enzyme system as for Aurora-A; conditions: average Ki if more than one value determined
# T3 sequence (Q9UQB9 1-309): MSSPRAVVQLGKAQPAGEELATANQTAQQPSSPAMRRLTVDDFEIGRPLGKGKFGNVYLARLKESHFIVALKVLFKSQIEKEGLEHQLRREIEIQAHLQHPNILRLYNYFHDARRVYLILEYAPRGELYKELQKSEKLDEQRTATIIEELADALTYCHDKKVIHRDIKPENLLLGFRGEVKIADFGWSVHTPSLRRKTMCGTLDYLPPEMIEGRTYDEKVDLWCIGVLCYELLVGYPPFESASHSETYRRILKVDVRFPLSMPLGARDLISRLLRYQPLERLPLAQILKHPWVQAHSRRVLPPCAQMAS
# Procedure: Compounds were screened for their ability to inhibit full length Aurora-A (AA 1-403) activity using a standard coupled enzyme system (Fox et al., Protein Sci. 7, pp. 2249 (1998)). Reactions were carried out in a solution containing 100 mM HEPES (pH 7.5), 10 mM MgCl2, 25 mM NaCl, 300 μM NADH, 1 mM DTT and 3% DMSO. Final substrate concentrations in the assay were 200 μM ATP (Sigma Chemicals, St Louis, Mo.) and 800 μM peptide (LRRASLG, American Peptide, Sunnyvale, Calif.). Reactions were carried out at 30° C. and 35 nM Aurora-A. Final concentrations of the components of the coupled enzyme system were 2.5 mM phosphoenolpyruvate, 200 μM NADH, 60 μg/ml pyruvate kinase and 20 μg/ml lactate dehydrogenase.
# An assay stock buffer solution was prepared containing all of the reagents listed above with the exception of ATP and the test compound of interest. The assay stock buffer solution (60 μl) was incubated in a 96 well plate with 2 μl of the test compound of interest at final concentrations spanning 0.002 μM to 30 μM at 30° C. for 10 min. Typically, a 12 point titration was conducted by preparing serial dilutions (from 1 mM compound stocks) with DMSO of the test compounds in daughter plates. The reaction was initiated by the addition of 5 μl of ATP (final concentration 200 μM). Rates of reaction were obtained using a Molecular Devices Spectramax plate reader (Sunnyvale, Calif.) over 10 min at 30° C. The Ki values were determined from the rate data as a function of inhibitor concentration using computerized nonlinear regression (Prism 3.0, Graphpad Software, San Diego, Calif.). Aurora-C activity was screened in a similar manner using Aurora-C protein. Aurora-B activity was screened using a radioactive assay, such as described in Examples 1 and 2, but using Aurora-B protein.
# Aurora-B = Aurora-B (Homo sapiens, UniProt Q96GD4); assay: Aurora-B inhibition assay, radioactive assay; conditions: average Ki if more than one value determined
# Aurora-B, sequence (Q96GD4 whole entry): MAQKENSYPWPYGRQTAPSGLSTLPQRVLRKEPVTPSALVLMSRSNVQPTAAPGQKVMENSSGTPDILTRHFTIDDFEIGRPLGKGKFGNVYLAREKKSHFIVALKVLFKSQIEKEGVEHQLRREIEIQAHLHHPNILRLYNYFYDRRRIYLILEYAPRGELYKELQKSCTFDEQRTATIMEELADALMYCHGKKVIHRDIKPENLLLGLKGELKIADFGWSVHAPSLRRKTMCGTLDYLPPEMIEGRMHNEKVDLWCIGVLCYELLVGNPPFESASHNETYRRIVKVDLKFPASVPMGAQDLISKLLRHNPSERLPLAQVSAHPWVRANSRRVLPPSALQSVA
# How it was run: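 Aurora-B protein substituted into the standard radioactive kinase format: reaction quenched with TCA, product captured on glass fiber filters and 33P counted. Ki(app) derived by fitting background-corrected counts against inhibitor concentration.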
# JAK3 = molecular target: T4, JAK3 (Homo sapiens, UniProt P52333); assay: JAK3 inhibition assay (standard radioactive enzyme assay); conditions: average Ki if more than one value determined
# T4 sequence (P52333 1-1124): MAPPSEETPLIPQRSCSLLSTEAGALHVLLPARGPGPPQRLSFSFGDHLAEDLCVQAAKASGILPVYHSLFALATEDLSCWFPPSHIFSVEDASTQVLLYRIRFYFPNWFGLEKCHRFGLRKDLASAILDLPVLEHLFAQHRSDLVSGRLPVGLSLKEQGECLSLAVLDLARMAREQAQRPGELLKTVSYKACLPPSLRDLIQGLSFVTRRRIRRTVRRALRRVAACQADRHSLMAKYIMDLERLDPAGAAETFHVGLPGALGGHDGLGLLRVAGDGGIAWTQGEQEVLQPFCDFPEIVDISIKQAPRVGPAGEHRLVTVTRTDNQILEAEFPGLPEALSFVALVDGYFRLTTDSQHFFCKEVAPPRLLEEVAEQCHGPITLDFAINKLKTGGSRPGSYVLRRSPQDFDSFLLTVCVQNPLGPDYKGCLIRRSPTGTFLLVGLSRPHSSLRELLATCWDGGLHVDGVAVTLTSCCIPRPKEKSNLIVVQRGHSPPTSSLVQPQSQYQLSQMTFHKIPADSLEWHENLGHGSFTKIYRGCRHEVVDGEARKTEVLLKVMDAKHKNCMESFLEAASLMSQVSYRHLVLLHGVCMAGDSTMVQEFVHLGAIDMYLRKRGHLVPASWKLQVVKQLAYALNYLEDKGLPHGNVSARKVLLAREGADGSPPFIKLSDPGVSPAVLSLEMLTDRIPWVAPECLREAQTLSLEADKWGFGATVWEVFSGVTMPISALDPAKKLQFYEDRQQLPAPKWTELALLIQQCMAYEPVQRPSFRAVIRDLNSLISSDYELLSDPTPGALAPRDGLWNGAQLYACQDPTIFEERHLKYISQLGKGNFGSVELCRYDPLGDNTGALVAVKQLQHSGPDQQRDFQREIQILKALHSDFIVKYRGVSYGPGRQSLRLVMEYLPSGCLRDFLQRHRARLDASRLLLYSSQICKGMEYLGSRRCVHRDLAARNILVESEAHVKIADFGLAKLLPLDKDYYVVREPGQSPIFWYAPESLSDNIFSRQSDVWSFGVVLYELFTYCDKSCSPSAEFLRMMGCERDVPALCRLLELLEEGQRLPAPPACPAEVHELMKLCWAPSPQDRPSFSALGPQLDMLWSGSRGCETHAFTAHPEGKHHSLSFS
# T1 sequence (Q13464 6-553, species assumed): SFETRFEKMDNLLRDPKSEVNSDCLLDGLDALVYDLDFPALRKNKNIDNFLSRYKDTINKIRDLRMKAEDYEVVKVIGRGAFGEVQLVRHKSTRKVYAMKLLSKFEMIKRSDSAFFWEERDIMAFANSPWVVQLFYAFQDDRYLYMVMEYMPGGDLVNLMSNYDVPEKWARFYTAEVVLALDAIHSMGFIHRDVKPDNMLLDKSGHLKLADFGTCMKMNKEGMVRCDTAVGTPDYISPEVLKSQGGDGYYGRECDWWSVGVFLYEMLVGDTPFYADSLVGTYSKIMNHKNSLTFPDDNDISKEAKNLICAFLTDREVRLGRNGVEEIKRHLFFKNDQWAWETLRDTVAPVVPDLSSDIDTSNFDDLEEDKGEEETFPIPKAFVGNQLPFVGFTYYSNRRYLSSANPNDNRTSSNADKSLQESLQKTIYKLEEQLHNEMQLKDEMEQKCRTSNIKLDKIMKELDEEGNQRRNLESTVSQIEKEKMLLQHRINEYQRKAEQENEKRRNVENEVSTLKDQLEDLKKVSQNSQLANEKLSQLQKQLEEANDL
structure (smiles),measurement,setting,value
Fc1cnc(-c2c[nH]c3ncc(Cl)cc23)nc1NCC1CCCCN1 (stereo not drawn) [Compound 325],pKi,ROCK I (AA 6-553),5.30 to 6.30
same,pKi,[1],> 6.30
same,pKi,Aurora-C,> 6.30
same,pKi,Aurora-B,> 6.30
C[C@H](Nc1cc(C(=O)O)nc(-c2c[nH]c3ncc(Cl)cc23)n1)c1ccc(F)cc1 [Compound 323],pKi,ROCK I (AA 6-553),5.30 to 6.30
same,pKi,[1],> 6.30
same,pKi,Aurora-C,> 6.30
same,pKi,Aurora-B,> 6.30
CC[C@H](Nc1nc(-c2c[nH]c3ncc(Cl)cc23)ncc1F)C(=O)NC [Compound 361],pKi,ROCK I (AA 6-553),5.30 to 6.30
same,pKi,[1],> 6.30
same,pKi,Aurora-C,> 6.30
same,pKi,Aurora-B,> 6.30
C[C@H](Nc1nc(-c2c[nH]c3ncc(Cl)cc23)ncc1F)c1ccc(F)cc1 [Compound 285],pKi,ROCK I (AA 6-553),5.30 to 6.30
same,pKi,[1],> 6.30
same,pKi,Aurora-C,> 6.30
same,pKi,Aurora-B,> 6.30
C[C@H](Nc1nc(-c2c[nH]c3ncc(Cl)cc23)ncc1F)C(=O)NCCC#N [Compound 461],pKi,[1],> 6.30
same,pKi,Aurora-C,> 6.30
same,pKi,Aurora-B,> 6.30
Fc1cnc(-c2c[nH]c3ncc(Cl)cc23)nc1NCC1CCNC1 (stereo not drawn) [Compound 329],pKi,ROCK I (AA 6-553),> 6.30
same,pKi,[1],> 6.30
same,pKi,Aurora-C,> 6.30
same,pKi,Aurora-B,> 6.30
C[C@H](Nc1nc(-c2c[nH]c3ncc(Cl)cc23)ncc1F)C(=O)NCCO [Compound 391],pKi,JAK3,> 6.30
same,pKi,ROCK I (AA 6-553),5.30 to 6.30
same,pKi,[1],> 6.30
same,pKi,Aurora-C,> 6.30
CNC(=O)[C@H](CO)Nc1nc(-c2c[nH]c3ncc(Cl)cc23)ncc1F [Compound 387],pKi,ROCK I (AA 6-553),5.30 to 6.30
same,pKi,[1],> 6.30
same,pKi,Aurora-C,> 6.30
same,pKi,Aurora-B,> 6.30
C[C@H](Nc1cc(CO)nc(-c2c[nH]c3ncc(Cl)cc23)n1)c1ccc(F)cc1 [Compound 339],pKi,ROCK I (AA 6-553),5.30 to 6.30
same,pKi,[1],> 6.30
same,pKi,Aurora-C,> 6.30
same,pKi,Aurora-B,> 6.30
Fc1cnc(-c2c[nH]c3ncc(Cl)cc23)nc1NCc1ccc(Cl)cc1 [Compound 238],pKi,ROCK I (AA 6-553),5.30 to 6.30
same,pKi,[1],> 6.30
same,pKi,Aurora-C,> 6.30
same,pKi,Aurora-B,> 6.30
O=C(CNc1nc(-c2c[nH]c3ncc(Cl)cc23)nc2ccccc12)NCC(F)(F)F [Compound 427],pKi,ROCK I (AA 6-553),5.30 to 6.30
same,pKi,[1],> 6.30
same,pKi,Aurora-C,5.30 to 6.30
same,pKi,Aurora-B,5.30 to 6.30
Clc1ccc(CNc2cccc(-c3c[nH]c4ncc(Cl)cc34)n2)cc1 [Compound 242],pKi,ROCK I (AA 6-553),5.30 to 6.30
same,pKi,[1],> 6.30
same,pKi,Aurora-C,> 6.30
same,pKi,Aurora-B,5.30 to 6.30
C[C@H](Nc1nc(-c2c[nH]c3ncc(Cl)cc23)ncc1F)C(=O)NCCNC(=O)OCc1ccccc1 [Compound 458],pKi,[1],> 6.30
same,pKi,Aurora-C,> 6.30
same,pKi,Aurora-B,> 6.30
Cc1cc(N[C@@H](C)c2ccc(F)cc2)nc(-c2c[nH]c3ncc(Cl)cc23)n1 [Compound 324],pKi,ROCK I (AA 6-553),5.30 to 6.30
same,pKi,[1],> 6.30
same,pKi,Aurora-C,> 6.30
same,pKi,Aurora-B,> 6.30
